Patent US5173481A, “Preparation of specifically substituted cyclodextrins” (The United States of America as represented by the …, priority 1990, dated 1992)
≈ marks a conversion by molar mass, not a printed value.

Experiments:
Solubility in water = settings: for solubility: water
[1] = Solubility in water in the presence of excess toluene; type: physicochemical; settings: excess of toluene added to the aqueous phase; relative to 3.2 mg/ml in water
Protocol: The suspension obtained upon cooling a neutralization of reaction mixture was concentrated to 600 ml and dialyzed for 7 h at room temperature. The retained suspension (.intg.700 ml) was stirred with toluene (10 ml) for 14 h, water (500 ml) was added, stirred for 15 min, and filtered. The residue was suspended in water (1.25 L), stirred for 1 h, and filtered. The combined filtrates were concentrated to 200 ml, refrigerated overnight, the sclid was collected by filtration, and recrystallized from hot water to yield white crystals of the product. Rf 0.25 (1-propanol-water-ethyl acetate-ammonium hydroxide, 6:3:1:1), FIG. 1. M.P. 292°-293° C. MS (FAB+) m/e 1193.2 (M+H^+), 1210.3 (M+H2 O). MS (FAB-) m/e 1191.1 (M-H^+), 1210.2 (M+H2 O). MS (^252 Cf) m/e 1215.8 (M+Na^+). ^1 H-NMR (D2 O) δ5.30-5.23 and 5.17- 5.05 (m, 7H, H-1), 4.16-3.40 (m, 45H), 1.17 (d, J=6.42, 3H, CH3). Anal. for C45 H76 O36 ·3H2 O; calcd. C 43.30, H 6.58; found C 43.31, H 6.43.

| Molecule | solubility (Solubility in water) | further results |
| --- | --- | --- |
| CC(O)CO[C@H]1[C@H]2O[C@H]3[C@H](O)[C@@H](O)[C@@H](O[C@H]4[C@H](O)[C@@H](O)[C@@H](O[C@H]5[C@H](O)[C@@H](O)[C@@H](O[C@H]6[C@H](O)[C@@H](O)[C@@H](O[C@H]7[C@H](O)[C@@H](O)[C@@H](O[C@H]8[C@H](O)[C@@H](O)[C@@H](O[C@@H]([C@@H]1O)[C@@H](CO)O2)O[C@@H]8CO)O[C@@H]7CO)O[C@@H]6CO)O[C@@H]5CO)O[C@@H]4CO)O[C@@H]3CO (stereo partly drawn) [2-O-(2-hydroxypropyl)-β-cyclodextrin] | – | solubility (qualitative) (Solubility in water; inferred as probable reason for easy isolation): very low solubility |
| C[C@@H](O)CO[C@H]1[C@H]2O[C@H]3[C@H](O)[C@@H](O)[C@@H](O[C@H]4[C@H](O)[C@@H](O)[C@@H](O[C@H]5[C@H](O)[C@@H](O)[C@@H](O[C@H]6[C@H](O)[C@@H](O)[C@@H](O[C@H]7[C@H](O)[C@@H](O)[C@@H](O[C@H]8[C@H](O)[C@@H](O)[C@@H](O[C@@H]([C@@H]1O)[C@@H](CO)O2)O[C@@H]8CO)O[C@@H]7CO)O[C@@H]6CO)O[C@@H]5CO)O[C@@H]4CO)O[C@@H]3CO [2-O-[(R)-2'-Hydoxypropy]-β-cyclodextrin] | 7500 µg/mL (≈ 6.29 mM) | – |
| CC(O)CO[C@H]1[C@H]2O[C@H]3[C@H](O)[C@@H](O)[C@@H](O[C@H]4[C@H](O)[C@@H](O)[C@@H](O[C@H]5[C@H](O)[C@@H](O)[C@@H](O[C@H]6[C@H](O)[C@@H](O)[C@@H](O[C@H]7[C@H](O)[C@@H](O)[C@@H](O[C@H]8[C@H](O)[C@@H](O)[C@@H](O[C@@H]([C@@H]1O)[C@@H](CO)O2)O[C@@H]8CO)O[C@@H]7CO)O[C@@H]6CO)O[C@@H]5CO)O[C@@H]4CO)O[C@@H]3CO (stereo partly drawn) [2-O-[(RS)-2'-Hydroxypropyl]-β-cyclodextrin] | 4000 µg/mL (≈ 3.35 mM) | – |
| OC[C@H](O)CO[C@H]1[C@H]2O[C@H]3[C@H](O)[C@@H](O)[C@@H](O[C@H]4[C@H](O)[C@@H](O)[C@@H](O[C@H]5[C@H](O)[C@@H](O)[C@@H](O[C@H]6[C@H](O)[C@@H](O)[C@@H](O[C@H]7[C@H](O)[C@@H](O)[C@@H](O[C@H]8[C@H](O)[C@@H](O)[C@@H](O[C@@H]([C@@H]1O)[C@@H](CO)O2)O[C@@H]8CO)O[C@@H]7CO)O[C@@H]6CO)O[C@@H]5CO)O[C@@H]4CO)O[C@@H]3CO [2-O-[(S)-2', 3'-Dihydroxypropyl-β-cyclodextrin] | 12000 µg/mL (≈ 9.93 mM) | – |
| C[C@H](O)CO[C@H]1[C@H]2O[C@H]3[C@H](O)[C@@H](O)[C@@H](O[C@H]4[C@H](O)[C@@H](O)[C@@H](O[C@H]5[C@H](O)[C@@H](O)[C@@H](O[C@H]6[C@H](O)[C@@H](O)[C@@H](O[C@H]7[C@H](O)[C@@H](O)[C@@H](O[C@H]8[C@H](O)[C@@H](O)[C@@H](O[C@@H]([C@@H]1O)[C@@H](CO)O2)O[C@@H]8CO)O[C@@H]7CO)O[C@@H]6CO)O[C@@H]5CO)O[C@@H]4CO)O[C@@H]3CO [2-O-[(S)-2'-Hydroxypropyl]-β-cyclodextrin] | 3200 µg/mL (≈ 2.68 mM) | solubility in water with excess of toluene added [1]: only insignificantly changed |
| Mono[(S)-2-Hydroxypropyl]-α-Cyclodextrin | – | solubility in water: > 50% |
